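Exposure lasted 48 hours, with cells grown in 96-well plates and compounds tested at five concentrations. GI50 = concentration required for 50% inhibition of growth.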 Active and inactive are the calls of the source. No stated cut-off is given here; in the data, active = GI50 up to about 1.1 µM and inactive = higher.
How the values were obtained:
Experiment in all cases: NCI anticancer screen, dose series, 48 h
A549 = tested on: A549
ACHN = tested on: ACHN
CAKI-1 = tested on: CAKI-1
DU-145 = tested on: DU-145
HCT-15 = tested on: HCT-15
HOP-92 = tested on: HOP-92
K562 = tested on: K562
KM12 = tested on: KM12
LOX IMVI = tested on: LOX IMVI
MDA-MB-231 = tested on: MDA-MB-231
MDA-MB-435 = tested on: MDA-MB-435
MDA-N = tested on: MDA-N
MOLT-4 = tested on: MOLT-4
NCI-H226 = tested on: NCI-H226
NCI-H522 = tested on: NCI-H522
OVCAR-8 = tested on: OVCAR-8
SF-268 = tested on: SF-268
SK-MEL-28 = tested on: SK-MEL-28
SNB-75 = tested on: SNB-75
U-251 = tested on: U-251

In the case of `COP(=O)(OC)c1ccc(NCc2cc(O)ccc2O)cc1`, the GI50 (A549) is reported as > 100 µM (inactive), the GI50 (ACHN) is reported as 18.3 µM (inactive) and the GI50 (CAKI-1) is reported as 19.2 µM (inactive). For the same compound, the GI50 (DU-145) was 36.8 µM (inactive), the GI50 (HCT-15) was 21.3 µM and the GI50 (HOP-92) was 21.4 µM (inactive). The GI50 (K562) was 30.5 µM (inactive), the GI50 (KM12) was 19.9 µM (inactive) and the GI50 (LOX IMVI) was 26.3 µM (inactive). For the same compound, the GI50 (MDA-MB-231) was 26.9 µM (inactive), the GI50 (MDA-MB-435) was 26.8 µM (inactive) and the GI50 (MDA-N) was 26.3 µM (inactive). The GI50 (MOLT-4) was 30.2 µM (inactive), the GI50 (NCI-H226) was 38.9 µM (inactive) and the GI50 (NCI-H522) was 17.3 µM (inactive). The GI50 (OVCAR-8) was 26.8 µM (inactive), the GI50 (SF-268) was 17.6 µM (inactive) and the GI50 (SK-MEL-28) was 30.2 µM (inactive). The GI50 (SNB-75) was 29.5 µM (inactive) and the GI50 (U-251) was 30.6 µM (inactive).

With `CCOC(=O)/C=C(\C(=O)OCC)n1ccc(N)nc1=O` the GI50 (A549) was > 100 µM (inactive), the GI50 (ACHN) was > 100 µM (inactive) and the GI50 (CAKI-1) was 37.7 µM (inactive). The GI50 (DU-145) was > 100 µM (inactive), the GI50 (HCT-15) was over 100 µM and the GI50 (HOP-92) was 57.4 µM (inactive). The GI50 (K562) was 67.9 µM (inactive), the GI50 (KM12) was > 100 µM (inactive) and the GI50 (LOX IMVI) was 88.7 µM (inactive). For the same compound, the GI50 (MDA-MB-231) was > 100 µM (inactive), the GI50 (MDA-MB-435) was 94.6 µM (inactive) and the GI50 (MDA-N) was > 100 µM (inactive). The GI50 (MOLT-4) was 97.1 µM (inactive), the GI50 (NCI-H226) was > 100 µM (inactive) and the GI50 (NCI-H522) was 18.2 µM (inactive). The GI50 (OVCAR-8) was > 100 µM (inactive), the GI50 (SF-268) was > 99.8 µM (inactive) and the GI50 (SK-MEL-28) was 1.34 µM (inactive). For the same compound, the GI50 (SNB-75) was > 100 µM (inactive) and the GI50 (U-251) was 72.3 µM (inactive).

With `O=C(Nc1ccc2cc3ccccc3cc2c1)c1cc2c(cc1Cl)Sc1nccn1S2(=O)=O` the GI50 (A549) was 13.6 µM (inactive), the GI50 (ACHN) was 67.1 µM (inactive) and the GI50 (CAKI-1) was > 100 µM (inactive). For the same compound, the GI50 (DU-145) was 20.6 µM (inactive), the GI50 (HCT-15) was 20.7 µM and the GI50 (HOP-92) was 42 µM (inactive). The GI50 (K562) was 10.8 µM (inactive), the GI50 (KM12) was 33.7 µM (inactive) and the GI50 (LOX IMVI) was 16.8 µM (inactive). The GI50 (MDA-MB-231) was 8.97 µM (inactive), the GI50 (MDA-MB-435) was 28.4 µM (inactive) and the GI50 (MDA-N) was 44.4 µM (inactive). The GI50 (MOLT-4) was 33.4 µM (inactive), the GI50 (NCI-H226) was 82.8 µM (inactive) and the GI50 (NCI-H522) was 33.7 µM (inactive). For the same compound, the GI50 (OVCAR-8) was 26.4 µM (inactive), the GI50 (SF-268) was 15.3 µM (inactive) and the GI50 (SK-MEL-28) was 19.1 µM (inactive). For the same compound, the GI50 (SNB-75) was 13.3 µM (inactive) and the GI50 (U-251) was 5.48 µM (inactive).

Reference: ChEMBL document CHEMBL1201862, “PubChem BioAssay data set” (2004)
